In brackets after ≈: the same amount, converted by molar mass. Bounds are passed on as bounds.

The values that follow come from patent publication US3993749A, “Rapamycin and process of preparation” (Ayerst McKenna and Harrison Ltd., priority 1975, dated 1976).

One data set has as its system M. gypseum. In words: minimum inhibitory concentration of rapamycin. In kind it is cell-based, Microsporum gypseum. The settings on record: Nannizzia gypsea. The text has this: (§1) The antifungal activity of this compound is demonstrable in standard tests used for this purpose, for example, in the tests described in "Antiseptics, Disinfectants, Fungicides and Sterilization", G. F. Reddish, Ed., 2nd ed., Lea and Febiger, Philadelphia, 1957 or by D. C. Grove and W. A. Randall in "Assay Methods of Antibiotics", Med. Encycl. Inc., New York 1955.
(§2) h. the minimum inhibitory concentration of rapamycin against various microorganism is listed below: […]

Another data set concerns C. catenulata. As to the kind of experiment: minimum inhibitory concentration of rapamycin. In kind it is cell-based.
Text: as §1, §2

The test system of the next data set is C. intermedia. In words: minimum inhibitory concentration of rapamycin. In kind it is cell-based. The conditions noted are these: Sungouiella intermedia.
Text: as §1, §2

The subject of a further data set is C. lipolytica. In words: minimum inhibitory concentration of rapamycin. In kind it is cell-based. The conditions noted are these: Yarrowia lipolytica.
Text: as §1, §2

A further data set deals with C. morrera. As to the kind of experiment: minimum inhibitory concentration of rapamycin. In kind it is cell-based.
Text: as §1, §2

The subject of the next data set is C. parapsilosis. In words: minimum inhibitory concentration of rapamycin. In kind it is cell-based. The settings on record: Lodderomyces parapsilosis.
Text: as §1, §2

Another data set has as its system C. pseudtropicalis. In words: minimum inhibitory concentration of rapamycin. The conditions noted are these: read-out: minimum inhibitory concentration. In kind it is cell-based.
Text: as §1, §2

The next data set concerns C. stellatoidea. In words: minimum inhibitory concentration of rapamycin. Format: cell-based. The conditions noted are these: Candida albicans.
Text: as §1, §2

In a further data set the test system is C. tropicalis. As to the kind of experiment: minimum inhibitory concentration of rapamycin. In kind it is cell-based. The settings on record: Candida tropicalis.
Text: as §1, §2

The test system of data set [1] is Candida albicans (5 strains). In words: minimum inhibitory concentration of rapamycin. Format: cell-based. The conditions noted are these: against Candida albicans.
Text: as §1, §2

The next data set has as its system T. mentagrophytes. As to the kind of experiment: minimum inhibitory concentration of rapamycin. Format: cell-based. The settings on record: Trichophyton mentagrophytes, read-out: minimum inhibitory concentration.
Text: as §1, §2

Another data set in a line: LD50 in mice. The conditions noted are these: mouse, in vivo.
A further data set concerns C. albicans ATCC 11651. In words: protection studies in mice infected with C. albicans. In kind it is in vivo. An excerpt:
In protection studies, mice were infected by intravenous injection of C. albicans ATCC 11651. […] At this dose 50% of the mice were protected.

The nature of data set [2]: irritation, intradermal injection into a rabbit's ear. In kind it is in vivo. The conditions noted are these: 1% suspension (0.2 ml) in water containing […] polysorbate 80, intradermal. The procedure: (§3) A 1% suspension (0.2 ml) of rapamycin in water containing 1.5% polysorbate 80 (Tween 80), when injected intradermally into a rabbit's ear caused no irritation. Similarly, two drops of a 0.5% suspension applied to a rabbit's eye caused no irritation.

The nature of data set [3]: irritation, drops applied to a rabbit's eye. Format: in vivo. The settings on record: two drops of a 0.5% suspension. The procedure:
as §3

A short description of the next data set: solubility. Format: physicochemical.
In a further data set the test system is C. albicans. The settings on record: prior art; cited from earlier work.
For data set [4] the following is noted: prior art, route not given; cited from earlier work.
A further data set has as its system fungi. The settings on record: prior art; cited from earlier work.
The test system of the next data set is bacteria. The conditions noted are these: prior art; cited from earlier work.
A further data set concerns gram positive organisms. The settings on record: prior art; cited from earlier work.
The next data set relates to Candida strains. The conditions noted are these: prior art; cited from earlier work.
Another data set concerns tumor. The conditions noted are these: prior art; cited from earlier work.

In the case of `CO[C@H]1C[C@@H]2CC[C@@H](C)[C@@](O)(O2)C(=O)C(=O)N2CCCC[C@H]2C(=O)O[C@H]([C@H](C)C[C@@H]2CC[C@@H](O)[C@H](OC)C2)CC(=O)[C@H](C)/C=C(\C)[C@@H](O)[C@@H](OC)C(=O)[C@H](C)C[C@H](C)/C=C/C=C/C=C/1C` [Rapamycin, rapamycin], the MIC against M. gypseum was 12.5 µg/mL (≈ 13.7 µM); against C. catenulata it was under 0.1 µg/mL; in the data set with C. intermedia it was under 0.1 µg/mL; in the data set on C. lipolytica it was 2.5 µg/mL (≈ 2.73 µM); against C. morrera it was under 0.1 µg/mL; against C. parapsilosis, under 0.1 µg/mL. Moreover, the MIC with C. pseudtropicalis was over 5 µg/mL; against C. stellatoidea, under 0.1 µg/mL; against C. tropicalis it was 0.1 µg/mL (≈ 0.109 µM); with T. mentagrophytes, over 1000 µg/mL. Also, in data set [1], the inhibitory activity entry is recorded as “especially pronounced”. The LD50 in the data set “LD50 in mice” (ip) was 597 ± 28.1 mg/kg; in “LD50 in mice” (po), over 2500 mg/kg. In the data set on C. albicans ATCC 11651 (10 mg/kg orally), the mice survived is listed as 4 out of 10. For the same compound, the mice protected in the data set on C. albicans ATCC 11651 (10 mg/kg s.c. at 1, 4 and 24 hours after i.v. infection) is 50%. The protection result with C. albicans ATCC 11651 (25 mg/kg orally) and in the data set on C. albicans ATCC 11651 (25 mg/kg s.c.) was “complete protection” throughout. The irritation result in data set [2] and in data set [3] was “no irritation” each time. The solubility entry in the data set “solubility” (in ether, chloroform, acetone, methanol and dimethylformamide) is reported as “soluble”; in “solubility” (in hexane and petroleum ether), “very sparingly soluble”; in the data set “solubility” (in water), “substantially insoluble”.
Mycotrienin: the “MIC against C. albicans” value with C. albicans was 5 µg/mL. In addition, in data set [4], the LD50 in mice was 15 mg/kg. Besides, the antifungal activity result with fungi is recorded as “low antifungal activity”.
Regarding Proticin, in the data set with bacteria, the antibacterial activity result is “antibacterial”. Moreover, in the data set with fungi, the antifungal activity result is reported as “without any antifungal activity”.
For Resistaphylin, in the data set with bacteria, the antibacterial activity result is “antibacterial”. In addition, the antifungal activity entry in the data set on fungi is recorded as “without any antifungal activity”.
As to Trienine, in the data set with gram positive organisms, the “activity against gram positive organisms” value is listed as “marked activity”. Besides, the “activity against Candida strains” value with Candida strains was “only marginal activity”. For the same compound, the antitumor activity result in the data set with tumor is “antitumor activity”.
